Measurements taken from ChEMBL document CHEMBL1201862, “PubChem BioAssay data set” (2004).
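Exposure lasted 48 hours, with cells grown in 96-well plates and compounds tested at five concentrations. At the GI50, growth is halved.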 Activity calls are given as the source filed them. Cut-off read from the data, not from the text of the source: active = GI50 up to about 1.1 µM and inactive = higher.

Key:
Experiment in all cases: DTP human tumour cell line panel, 48 h
HOP-92 = test system: HOP-92
RXF 393 = test system: RXF 393
SK-OV-3 = test system: SK-OV-3
HCT-15 = test system: HCT-15
NCI-H460 = test system: NCI-H460
SNB-75 = test system: SNB-75
K562 = test system: K562
NCI-H226 = test system: NCI-H226
SK-MEL-5 = test system: SK-MEL-5
SF-268 = test system: SF-268
HL-60 = test system: HL-60
M14 = test system: M14
NCI-H522 = test system: NCI-H522
MCF7 = test system: MCF7
U-251 = test system: U-251
Malme-3M = test system: Malme-3M
SF-295 = test system: SF-295
MDA-N = test system: MDA-N
HOP-62 = test system: HOP-62
CCRF-CEM = test system: CCRF-CEM
KM12 = test system: KM12
TK-10 = test system: TK-10
UACC-257 = test system: UACC-257
OVCAR-8 = test system: OVCAR-8
SK-MEL-28 = test system: SK-MEL-28
EKVX = test system: EKVX
IGROV-1 = test system: IGROV-1
HT-29 = test system: HT-29
HCT-116 = test system: HCT-116
RPMI-8226 = test system: RPMI-8226
OVCAR-4 = test system: OVCAR-4
SW-620 = test system: SW-620
UO-31 = test system: UO-31
COLO 205 = test system: COLO 205
OVCAR-3 = test system: OVCAR-3
DU-145 = test system: DU-145
ACHN = test system: ACHN
UACC-62 = test system: UACC-62
A549 = test system: A549
CAKI-1 = test system: CAKI-1
SNB-19 = test system: SNB-19
SF-539 = test system: SF-539
OVCAR-5 = test system: OVCAR-5
BT-549 = test system: BT-549
SR = test system: SR
PC-3 = test system: PC-3
SN12C = test system: SN12C
MOLT-4 = test system: MOLT-4
HCC 2998 = test system: HCC 2998
NCI-H23 = test system: NCI-H23
NCI/ADR-RES = test system: NCI/ADR-RES
786-0 = test system: 786-0

COc1cccc(C=C(C#N)C#N)c1OC
GI50 (HOP-92): > 100 µM (inactive)
GI50 (RXF 393): > 100 µM (inactive)
GI50 (SK-OV-3): 12.3 µM (inactive)
GI50 (HCT-15): > 100 µM
GI50 (NCI-H460): > 100 µM (inactive)
GI50 (SNB-75): 43.2 µM (inactive)
GI50 (K562): > 100 µM (inactive)
GI50 (NCI-H226): > 100 µM (inactive)
GI50 (SK-MEL-5): > 100 µM (inactive)
GI50 (SF-268): > 100 µM (inactive)
GI50 (HL-60): 85.9 µM (inactive)
GI50 (M14): > 100 µM (inactive)
GI50 (NCI-H522): > 100 µM (inactive)
GI50 (MCF7): > 100 µM (inactive)
GI50 (U-251): > 100 µM (inactive)
GI50 (Malme-3M): > 100 µM (inactive)
GI50 (SF-295): > 100 µM (inactive)
GI50 (MDA-N): > 100 µM (inactive)
GI50 (HOP-62): > 100 µM (inactive)
GI50 (CCRF-CEM): 83.6 µM (inactive)
GI50 (KM12): > 100 µM (inactive)
GI50 (TK-10): > 100 µM (inactive)
GI50 (UACC-257): > 100 µM (inactive)
GI50 (OVCAR-8): > 100 µM (inactive)
GI50 (SK-MEL-28): > 100 µM (inactive)
GI50 (EKVX): > 100 µM (inactive)
GI50 (IGROV-1): > 100 µM (inactive)
GI50 (HT-29): > 100 µM (inactive)
GI50 (HCT-116): > 100 µM (inactive)
GI50 (RPMI-8226): 43.5 µM (inactive)
GI50 (OVCAR-4): > 100 µM (inactive)
GI50 (SW-620): > 100 µM (inactive)
GI50 (UO-31): > 100 µM (inactive)
GI50 (COLO 205): > 100 µM (inactive)
GI50 (OVCAR-3): > 100 µM (inactive)
GI50 (DU-145): > 100 µM (inactive)
GI50 (ACHN): > 100 µM (inactive)
GI50 (UACC-62): > 100 µM (inactive)
GI50 (A549): > 100 µM (inactive)
GI50 (CAKI-1): > 100 µM (inactive)
GI50 (SNB-19): > 100 µM (inactive)
GI50 (SF-539): > 100 µM (inactive)
GI50 (OVCAR-5): > 100 µM (inactive)
GI50 (BT-549): > 100 µM (inactive)
GI50 (SR): > 100 µM (inactive)
GI50 (PC-3): > 100 µM (inactive)
GI50 (SN12C): > 100 µM (inactive)
GI50 (MOLT-4): > 100 µM (inactive)
GI50 (HCC 2998): > 100 µM (inactive)
GI50 (NCI-H23): > 100 µM (inactive)
GI50 (NCI/ADR-RES): > 100 µM (inactive)
GI50 (786-0): > 100 µM (inactive)

COc1ccc(CNc2nc3cc(N)cc(N)c3nc2-c2ccccc2)cc1
GI50 (RPMI-8226): 4.13 µM (inactive)
